Results as given in patent publication US20230031406A1, “COMPOUNDS AND COMPOSITIONS FOR TREATING CONDITIONS ASSOCIATED WITH NLRP ACTIVITY” (Novartis AG, priority 2018, published 2023).

system: PMA-differentiated THP-1 cells; assay: IL-1β production in PMA-differentiated THP-1 cells stimulated with gramicidin (hTHP-1 assay containing 2% fetal bovine serum; Procedures 1 and 2); type: cell-based, human; conditions: Homo sapiens, THP-1, Table B4; 2% fetal bovine serum; class symbols; read-out: hTHP-1 IC50
Method in brief: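 PMA 20 ng/ml 16-18 h → trypsinise → 50,000 cells/well, RPMI/2% FBS; cpd 1 h (11-pt, 100–0.0017 μM; DMSO 0.37%); gramicidin 5 μM, 2 h; spin; supernatant IL-1β via HTRF.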

IC50, 200 to 1000 nM:
NS(=O)(=NC(=O)Nc1c2c(nc3c1CCC3)CCC2)c1nn(C(F)F)cc1F (single isomer, unassigned) [Example 759, (R) or (S)-1-(difluoromethyl)-4-fluoro-N′-((1,2,3,5,6,7-hexahydrodicyclopenta[b,e]pyridin-8-yl)carbamoyl)-1H-pyrazole-3-sulfonimidamide]

same assay, conditions: Homo sapiens, THP-1, Table B4; 2% fetal bovine serum; numeric bounds; read-out: hTHP-1 IC50

IC50, > 30000 nM:
NS(=O)(=NC(=O)Nc1c2c(nc3c1CCC3)CCC2)c1nn(C(F)F)cc1F (single isomer, unassigned) [Example 760, (S) or (R)-1-(difluoromethyl)-4-fluoro-N′-((1,2,3,5,6,7-hexahydrodicyclopenta[b,e]pyridin-8-yl)carbamoyl)-1H-pyrazole-3-sulfonimidamide]

same assay, conditions: Table B4; 2% fetal bovine serum; class symbols; read-out: hTHP-1 IC50

IC50, 200 to 1000 nM:
Cc1c(C(F)(F)F)nc(C(F)(F)F)c(C)c1NC(=O)N=S(N)(=O)c1cc(C(C)(C)O)cs1 (single isomer, unassigned) [Example 755, (R) or (S)-N′-((3,5-dimethyl-2,6-bis(trifluoromethyl)pyridin-4-yl)carbamoyl)-4-(2-hydroxypropan-2-yl)thiophene-2-sulfonimidamide]
NS(=O)(=NC(=O)Nc1c2c(nc(C3CC3)c1C1CC1)CCC2)c1nn(C(F)F)cc1F (single isomer, unassigned) [Example 763, (R) or (S)-N′-((2,3-dicyclopropyl-6,7-dihydro-5H-cyclopenta[b]pyridin-4-yl)carbamoyl)-1-(difluoromethyl)-4-fluoro-1H-pyrazole-3-sulfonimidamide]
CCn1cc(F)c(S(N)(=O)=NC(=O)Nc2c3c(nc(C(F)(F)F)c2-c2ccccc2)CCC3)n1 (single isomer, unassigned) [Example 768, (S) or (R)-1-ethyl-4-fluoro-N′-((3-phenyl-2-(trifluoromethyl)-6,7-dihydro-5H-cyclopenta[b]pyridin-4-yl)carbamoyl)-1H-pyrazole-3-sulfonimidamide]
CCc1c(C(F)(F)F)nc2c(c1NC(=O)N=S(N)(=O)c1nn(CC)cc1F)CCC2 (single isomer, unassigned) [Example 771, (R) or (S)-1-ethyl-N′-((3-ethyl-2-(trifluoromethyl)-6,7-dihydro-5H-cyclopenta[b]pyridin-4-yl)carbamoyl)-4-fluoro-1H-pyrazole-3-sulfonimidamide]
CC1(C)CCc2c1nc1c(c2NC(=O)N=S(N)(=O)c2sc(C(O)(CO)CO)nc2CO)CCC1 (single isomer, unassigned) [Example 777, (R) or (S)-N′-((3,3-dimethyl-1,2,3,5,6,7-hexahydrodicyclopenta[b,e]pyridin-8-yl)carbamoyl)-4-(hydroxymethyl)-2-(1,2,3-trihydroxypropan-2-yl)-thiazole-5-sulfonimidamide]

IC50, 40 to 200 nM:
CCn1cc(F)c(S(N)(=O)=NC(=O)Nc2c3c(nc4c2CCC4)CCC3)n1 (single isomer, unassigned) [Example 761, (R) or (S)-1-ethyl-4-fluoro-N′-((1,2,3,5,6,7-hexahydrodicyclopenta[b,e]pyridin-8-yl)carbamoyl)-1H-pyrazole-3-sulfonimidamide]
CCn1cc(F)c(S(N)(=O)=NC(=O)Nc2c3c(nc(C)c2-c2ccccc2)CCC3)n1 (single isomer, unassigned) [Example 770, (S) or (R)-1-ethyl-4-fluoro-N′-((2-methyl-3-phenyl-6,7-dihydro-5H-cyclopenta[b]pyridin-4-yl)carbamoyl)-1H-pyrazole-3-sulfonimidamide]
CCn1cc(F)c(S(N)(=O)=NC(=O)Nc2c3c(nc(C(F)(F)F)c2C2CC2)CCC3)n1 (single isomer, unassigned) [Example 773, (R) or (S)-N′-((3-cyclopropyl-2-(trifluoromethyl)-6,7-dihydro-5H-cyclopenta[b]pyridin-4-yl)carbamoyl)-1-ethyl-4-fluoro-1H-pyrazole-3-sulfonimidamide]
NS(=O)(=NC(=O)Nc1c2c(nc(C(F)(F)F)c1C1CC1)CCC2)c1nn(C(F)F)cc1F (single isomer, unassigned) [Example 775, (R) or (S)-N′-((3-cyclopropyl-2-(trifluoromethyl)-6,7-dihydro-5H-cyclopenta[b]pyridin-4-yl)carbamoyl)-1-(difluoromethyl)-4-fluoro-1H-pyrazole-3-sulfonimidamide]

IC50, 8 to 40 nM:
CC(C)n1cc(F)c(S(N)(=O)=NC(=O)Nc2c3c(nc4c2CC[C@H]4C)CCC3)n1 (single isomer, unassigned) [Example 757, (R) or (S)-4-fluoro-1-isopropyl-N′-(((R)-3-methyl-1,2,3,5,6,7-hexahydrodicyclopenta[b,e]pyridin-8-yl)carbamoyl)-1H-pyrazole-3-sulfonimidamide]
NS(=O)(=NC(=O)Nc1c2c(nc(C(F)(F)F)c1-c1ccccc1)CCC2)c1nn(C(F)F)cc1F (single isomer, unassigned) [Example 765, (R) or (S)-1-(difluoromethyl)-4-fluoro-N′-((3-phenyl-2-(trifluoromethyl)-6,7-dihydro-5H-cyclopenta [b]pyridin-4-yl)carbamoyl)-1H-pyrazole-3-sulfonimidamide]
CCn1cc(F)c(S(N)(=O)=NC(=O)Nc2c3c(nc(C(F)(F)F)c2-c2ccccc2)CCC3)n1 (single isomer, unassigned) [Example 767, (R) or (S)-1-ethyl-4-fluoro-N′-((3-phenyl-2-(trifluoromethyl)-6,7-dihydro-5H-cyclopenta[b]pyridin-4-yl)carbamoyl)-1H-pyrazole-3-sulfonimidamide]
CCn1cc(F)c(S(N)(=O)=NC(=O)Nc2c3c(nc(C(F)(F)F)c2-c2ccccc2F)CCC3)n1 (single isomer, unassigned) [Example 779, (R) or (S)-1-ethyl-4-fluoro-N′-((3-(2-fluorophenyl)-2-(trifluoromethyl)-6,7-dihydro-5H-cyclopenta[b]pyridin-4-yl)carbamoyl)-1H-pyrazole-3-sulfonimidamide]

IC50, 1000 to 5000 nM:
CC(C)n1cc(F)c(S(N)(=O)=NC(=O)Nc2c3c(nc4c2CC[C@H]4C)CCC3)n1 (single isomer, unassigned) [Example 758, (S) or (R)-4-fluoro-1-isopropyl-N′-(((R)-3-methyl-1,2,3,5,6,7-hexahydrodicyclopenta[b,e]pyridin-8-yl)carbamoyl)-1H-pyrazole-3-sulfonimidamide]
NS(=O)(=NC(=O)Nc1c2c(nc(C(F)(F)F)c1-c1ccccc1)CCC2)c1nn(C(F)F)cc1F (single isomer, unassigned) [Example 766, (S) or (R)-1-(difluoromethyl)-4-fluoro-N′-((3-phenyl-2-(trifluoromethyl)-6,7-dihydro-5H-cyclopenta[b]pyridin-4-yl)carbamoyl)-1H-pyrazole-3-sulfonimidamide]
CC1(C)CCc2c1nc1c(c2NC(=O)N=S(N)(=O)c2sc(C(O)(CO)CO)nc2CO)CCC1 (single isomer, unassigned) [Example 778, (S) or (R)-N′-((3,3-dimethyl-1,2,3,5,6,7-hexahydrodicyclopenta [b,e]pyridin-8-yl)carbamoyl)-4-(hydroxymethyl)-2-(1,2,3-trihydroxypropan-2-yl)-thiazole-5-sulfonimidamide]

IC50, 5000 to 30000 nM:
Cc1c(C(F)(F)F)nc(C(F)(F)F)c(C)c1NC(=O)N=S(N)(=O)c1cc(C(C)(C)O)cs1 (single isomer, unassigned) [Example 756, (S) or (R)-N′-((3,5-dimethyl-2,6-bis(trifluoromethyl)pyridin-4-yl)carbamoyl)-4-(2-hydroxypropan-2-yl)thiophene-2-sulfonimidamide]
CCn1cc(F)c(S(N)(=O)=NC(=O)Nc2c3c(nc4c2CCC4)CCC3)n1 (single isomer, unassigned) [Example 762, (S) or (R)-1-ethyl-4-fluoro-N′-((1,2,3,5,6,7-hexahydrodicyclopenta[b,e]pyridin-8-yl)carbamoyl)-1H-pyrazole-3-sulfonimidamide]
NS(=O)(=NC(=O)Nc1c2c(nc(C3CC3)c1C1CC1)CCC2)c1nn(C(F)F)cc1F (single isomer, unassigned) [Example 764, (S) or (R)-N′-((2,3-dicyclopropyl-6,7-dihydro-5H-cyclopenta[b]pyridin-4-yl)carbamoyl)-1-(difluoromethyl)-4-fluoro-1H-pyrazole-3-sulfonimidamide]
CCn1cc(F)c(S(N)(=O)=NC(=O)Nc2c3c(nc(C)c2-c2ccccc2)CCC3)n1 (single isomer, unassigned) [Example 769, (R) or (S)-1-ethyl-4-fluoro-N′-((2-methyl-3-phenyl-6,7-dihydro-5H-cyclopenta[b]pyridin-4-yl)carbamoyl)-1H-pyrazole-3-sulfonimidamide]
CCc1c(C(F)(F)F)nc2c(c1NC(=O)N=S(N)(=O)c1nn(CC)cc1F)CCC2 (single isomer, unassigned) [Example 772, (S) or (R)-1-ethyl-N′-((3-ethyl-2-(trifluoromethyl)-6,7-dihydro-5H-cyclopenta[b]pyridin-4-yl)carbamoyl)-4-fluoro-1H-pyrazole-3-sulfonimidamide]
CCn1cc(F)c(S(N)(=O)=NC(=O)Nc2c3c(nc(C(F)(F)F)c2C2CC2)CCC3)n1 (single isomer, unassigned) [Example 774, (S) or (R)-N′-((3-cyclopropyl-2-(trifluoromethyl)-6,7-dihydro-5H-cyclopenta[b]pyridin-4-yl)carbamoyl)-1-ethyl-4-fluoro-1H-pyrazole-3-sulfonimidamide]
NS(=O)(=NC(=O)Nc1c2c(nc(C(F)(F)F)c1C1CC1)CCC2)c1nn(C(F)F)cc1F (single isomer, unassigned) [Example 776, (S) or (R)-N′-((3-cyclopropyl-2-(trifluoromethyl)-6,7-dihydro-5H-cyclopenta[b]pyridin-4-yl)carbamoyl)-1-(difluoromethyl)-4-fluoro-1H-pyrazole-3-sulfonimidamide]
